US10770169B2, “Method of providing a treatment to a subject based on a dynamic pathway map” (THE REGENTS OF THE UNIVERSITY OF CALIFORNIA, priority 2010, dated 2020)
Where two headings read alike, the source gives them in different places.

Assays:
[1] = system: panel of 55 breast cancer cell lines; assay: Cell growth inhibition assay (Cell Titer Glo, 72 h, 9 doses; GI50, TGI, LC50); format: cell-based, human; settings: Homo sapiens, read-out: GI50 (converted)
[2] = system: luminal, basal, claudin-low and ERBB2AMP breast cancer cell lines; assay: Associations of clinically relevant subtypes and response (non-parametric ANOVA or t-test on GI50 ranks); format: cell-based, human; settings: for Subtype specificity: Table 6, most sensitive subtype, FDR p<0.20
Excerpt: A central premise of this study is that associations between responses and molecular subtypes observed in preclinical cell line analyses will be recapitulated in the clinic in instances where the predictive molecular features in the cell lines are mirrored in human tumors. We established response-subtype associations by using non-parametric ANOVAs to compare […] values across transcriptional and genomics subtypes.
Differences between GI50s of the groups were compared with a non-parametric ANOVA or t-test, as appropriate, on the ranks. We combined the p-values for the three sets of tests and used false discovery rate (FDR) to correct for multiple testing. For the three-sample test, we performed a post-hoc analysis on the compounds with a significant class effect by comparing each group to all others to determine which group was most sensitive. The p-values for the post-hoc test were FDR-corrected together. In all cases, FDR p<0.20 was deemed significant. […] Analyses were performed in R.

COc1cc2ncnc(Nc3ccc(F)c(Cl)c3)c2cc1OCCCN1CCOCC1 [Gefitinib] showed a GI50 ([1]; AU565, cell line AU565) of 1.07 µM, a GI50 ([1]; BT-474, cell line BT474) of 0.724 µM and a GI50 ([1]; BT-483, cell line BT483) of 6.17 µM. It also gave a GI50 ([1]; BT-549, cell line BT549) of 15.1 µM, a GI50 ([1]; CAMA-1, cell line CAMA1) of 26.9 µM and a GI50 ([1]; HCC38, cell line HCC38) of 28.2 µM. For the same compound, the GI50 ([1]; HCC70, cell line HCC70) was 17.4 µM, the GI50 ([1]; HCC1143, cell line HCC1143) was 11.7 µM and the GI50 ([1]; HCC1187, cell line HCC1187) was 30.2 µM. For the same compound, the GI50 ([1]; HCC1395, cell line HCC1395) was 7.08 µM, the GI50 ([1]; HCC1419, cell line HCC1419) was 2.75 µM and the GI50 ([1]; HCC1428, cell line HCC1428) was 10.7 µM. The GI50 ([1]; HCC1500, cell line HCC1500) was 8.13 µM, the GI50 ([1]; HCC1806, cell line HCC1806) was 4.68 µM and the GI50 ([1]; HCC1937, cell line HCC1937) was 8.32 µM. The GI50 ([1]; HCC1954, cell line HCC1954) was 2.04 µM, the GI50 ([1]; MCF7, cell line MCF7) was 26.9 µM and the GI50 ([1]; MDA-MB-157, cell line MDAMB157) was 15.1 µM. For the same compound, the GI50 ([1]; MDA-MB-231, cell line MDAMB231) was 33.1 µM, the GI50 ([1]; MDA-MB-361, cell line MDAMB361) was 6.46 µM and the GI50 ([1]; MDA-MB-415, cell line MDAMB415) was 7.41 µM. It also gave a GI50 ([1]; MDA-MB-436, cell line MDAMB436) of 33.1 µM, a GI50 ([1]; MDA-MB-453, cell line MDAMB453) of 7.41 µM and a GI50 ([1]; MDA-MB-468, cell line MDAMB468) of 25.1 µM. The GI50 ([1]; SK-BR-3, cell line SKBR3) was 2.82 µM, the GI50 ([1]; SUM52PE, cell line SUM52PE) was 7.94 µM and the GI50 ([1]; SUM149PT, cell line SUM149PT) was 2.88 µM. For the same compound, the GI50 ([1]; SUM185PE, cell line SUM185PE) was 20.9 µM, the GI50 ([1]; SUM-159-PT, cell line SUM159PT) was 8.51 µM and the GI50 ([1]; T47D, cell line T47D) was 15.8 µM. The GI50 ([1]; UACC-893, cell line UACC893) was 1.15 µM, the GI50 ([1]; ZR-75-1, cell line ZR751) was 32.4 µM and the GI50 ([1]; ZR-75B, cell line ZR75B) was 21.4 µM. For the same compound, the GI50 ([1]; cell line 600MPE) was 7.24 µM, the GI50 ([1]; cell line HCC2185) was 9.33 µM and the GI50 ([1]; cell line HCC3153) was 33.1 µM. The GI50 ([1]; cell line LY2) was 27.5 µM, the GI50 ([1]; cell line MDAMB134V) was 30.2 µM and the GI50 ([1]; cell line MDAMB175V) was 0.209 µM. For the same compound, the GI50 ([1]; cell line SUM1315MO) was 2.95 µM, the “association of response with ERBB2 amplification” value [2] was “positively associated with ERBB2 amplification” and the Subtype specificity [2] was “ERBB2AMP”.
For CCN(CC)CCCCNc1ncc2cc(-c3cc(OC)cc(OC)c3)c(NC(=O)NC(C)(C)C)nc2n1 [PD173074], the GI50 ([1]; 600MPE cell line, censored GI50 values) was 9.77 µM, the GI50 ([1]; AU565, AU565 cell line, censored GI50 values) was 7.41 µM and the GI50 ([1]; AU565, cell line AU565) was 7.41 µM. The GI50 ([1]; BT-20, BT20 cell line, censored GI50 values) was 15.8 µM, the GI50 ([1]; BT-20, cell line BT20) was 15.8 µM and the GI50 ([1]; BT-474, cell line BT474) was 33.1 µM. For the same compound, the GI50 ([1]; BT-549, BT549 cell line, censored GI50 values) was 7.41 µM, the GI50 ([1]; BT-549, cell line BT549) was 7.41 µM and the GI50 ([1]; HCC38, cell line HCC38) was 2.95 µM. For the same compound, the GI50 ([1]; HCC70, cell line HCC70) was 7.08 µM, the GI50 ([1]; HCC202, cell line HCC202) was 8.51 µM and the GI50 ([1]; HCC1143, HCC1143 cell line, censored GI50 values) was 13.5 µM. For the same compound, the GI50 ([1]; HCC1143, cell line HCC1143) was 13.5 µM, the GI50 ([1]; HCC1187, HCC1187 cell line, censored GI50 values) was 10.7 µM and the GI50 ([1]; HCC1187, cell line HCC1187) was 10.7 µM. It also gave a GI50 ([1]; HCC1395, HCC1395 cell line, censored GI50 values) of 0.617 µM, a GI50 ([1]; HCC1395, cell line HCC1395) of 0.617 µM and a GI50 ([1]; HCC1419, HCC1419 cell line, censored GI50 values) of 4.47 µM. The GI50 ([1]; HCC1419, cell line HCC1419) was 4.47 µM, the GI50 ([1]; HCC1428, HCC1428 cell line, censored GI50 values) was 6.76 µM and the GI50 ([1]; HCC1428, cell line HCC1428) was 6.76 µM. It also gave a GI50 ([1]; HCC1500, cell line HCC1500) of 24.5 µM, a GI50 ([1]; HCC1806, HCC1806 cell line, censored GI50 values) of 5.01 µM and a GI50 ([1]; HCC1806, cell line HCC1806) of 5.01 µM. The GI50 ([1]; HCC1937, HCC1937 cell line, censored GI50 values) was 7.59 µM, the GI50 ([1]; HCC1937, cell line HCC1937) was 7.59 µM and the GI50 ([1]; HCC1954, HCC1954 cell line, censored GI50 values) was 7.59 µM. The GI50 ([1]; HCC1954, cell line HCC1954) was 7.59 µM, the GI50 ([1]; MDA-MB-157, cell line MDAMB157) was 2.34 µM and the GI50 ([1]; MDA-MB-231, cell line MDAMB231) was 6.76 µM. It also gave a GI50 ([1]; MDA-MB-361, cell line MDAMB361) of 15.1 µM, a GI50 ([1]; MDA-MB-436, cell line MDAMB436) of 6.46 µM and a GI50 ([1]; MDA-MB-453, cell line MDAMB453) of 1.95 µM. The GI50 ([1]; MDA-MB-468, cell line MDAMB468) was 6.61 µM, the GI50 ([1]; SK-BR-3, cell line SKBR3) was 7.94 µM and the GI50 ([1]; SUM52PE, cell line SUM52PE) was 0.0229 µM. For the same compound, the GI50 ([1]; SUM149PT, cell line SUM149PT) was 9.12 µM, the GI50 ([1]; SUM-159-PT, cell line SUM159PT) was 6.46 µM and the GI50 ([1]; T47D, cell line T47D) was 13.5 µM. The GI50 ([1]; UACC-812, cell line UACC812) was 7.08 µM, the GI50 ([1]; UACC-893, cell line UACC893) was 6.92 µM and the GI50 ([1]; ZR-75-1, cell line ZR751) was 15.5 µM. For the same compound, the GI50 ([1]; cell line 600MPE) was 9.77 µM, the GI50 ([1]; cell line HCC2185) was 29.5 µM and the GI50 ([1]; cell line HCC3153) was 15.5 µM. It also gave a GI50 ([1]; cell line LY2) of 7.41 µM, a GI50 ([1]; cell line MDAMB134V) of 18.6 µM and a GI50 ([1]; cell line SUM1315MO) of 3.39 µM. For the same compound, the Subtype specificity [2] was “Claudin-low”.
